Results from patent publication US11780893B2, “Kv1.3 blockers” (Zealand Pharma A/S, priority 2019, dated 2023).
Like-named read-outs stand apart in the source and are kept apart here. Bridge positions count the residues as written; N and C are the ends. Square brackets hold non-standard residues; d marks the D form. Peptide text beside a SMILES is read from it. Nle = CCCC[C@H](N)C(=O)O

What was measured:
[1] = tested on: Human peripheral blood mononuclear cells (PBMCs); test: IL-2 release from anti-CD3 stimulated human PBMCs (Example 4a); format: cell-based; conditions: for IC50: geometric mean, at least 4 replicates, read-out: anti-CD3 PBMC/IL-2 IC50
Protocol: Human peripheral blood mononuclear cells (PBMCs) were used to assess the effects of Kv1.3 blockers on T-cell activation as determined by IL-2 (cytokine) release after stimulation with anti-CD3.
Human PBMCs were obtained from Precision for Medicine (Frederick, Md.). Cells from 5 donors were used. Plate-bound anti-CD3 was used to stimulate bulk T cells in the PBMC preparations. Briefly, 96-well plates were coated with anti-CD3 antibody for 2 hrs at 37° C., using 50 μL of a 0.5 μg/mL anti-CD3 solution diluted in 1×PBS. Thereafter the plates were washed twice.
Finally, 1×10^5 PBMCs were added to each well in a volume of 100 μL, giving a final volume of 200 μL per well. The plates were incubated for 20-24 hours in a 37° C./5% CO2 incubator. After centrifugation of the plates, 25 μl supernatant was transferred to IL-2 detection plates (MSD Human IL-2 Tissue Culture Kit, cat #K151AHB-2) and IL-2 was measures as described by the manufacturer (Meso Scale Discovery, Rockville, Md., USA).
Results are shown in Table 4a as geometric mean of IC50 values obtained from anti-CD3 stimulated human PBMC assays. All values derive from at least 4 replicates.

[2] = target: T1, Kv1.1 (Homo sapiens, UniProt Q09470); test: cell-based; conditions: for Selectivity Kv1.1/Kv1.3: ratio IC50[Kv1.1]/IC50[Kv1.3]
T1 construct: expressed in transfected cells; host or cells: Chinese Hamster Ovary (CHO)
T1 sequence (Q09470 whole entry): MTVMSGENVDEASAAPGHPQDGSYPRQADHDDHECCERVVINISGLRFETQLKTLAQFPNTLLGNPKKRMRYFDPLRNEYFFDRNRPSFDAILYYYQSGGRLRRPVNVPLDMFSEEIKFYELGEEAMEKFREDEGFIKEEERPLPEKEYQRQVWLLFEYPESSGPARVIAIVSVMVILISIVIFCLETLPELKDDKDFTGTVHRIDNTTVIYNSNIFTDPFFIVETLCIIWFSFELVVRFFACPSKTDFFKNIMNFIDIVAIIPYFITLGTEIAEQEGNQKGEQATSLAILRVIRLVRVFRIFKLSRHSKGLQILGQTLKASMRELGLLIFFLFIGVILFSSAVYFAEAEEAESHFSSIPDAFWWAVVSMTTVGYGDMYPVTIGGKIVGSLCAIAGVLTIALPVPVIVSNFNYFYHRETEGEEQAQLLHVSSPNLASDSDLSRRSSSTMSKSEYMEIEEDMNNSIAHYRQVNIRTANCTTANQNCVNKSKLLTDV

[3] = target: T2, Kv1.6 (Homo sapiens, UniProt P17658); test: cell-based
T2 construct: expressed in transfected cells; host or cells: Chinese Hamster Ovary (CHO)
T2 sequence (P17658 whole entry): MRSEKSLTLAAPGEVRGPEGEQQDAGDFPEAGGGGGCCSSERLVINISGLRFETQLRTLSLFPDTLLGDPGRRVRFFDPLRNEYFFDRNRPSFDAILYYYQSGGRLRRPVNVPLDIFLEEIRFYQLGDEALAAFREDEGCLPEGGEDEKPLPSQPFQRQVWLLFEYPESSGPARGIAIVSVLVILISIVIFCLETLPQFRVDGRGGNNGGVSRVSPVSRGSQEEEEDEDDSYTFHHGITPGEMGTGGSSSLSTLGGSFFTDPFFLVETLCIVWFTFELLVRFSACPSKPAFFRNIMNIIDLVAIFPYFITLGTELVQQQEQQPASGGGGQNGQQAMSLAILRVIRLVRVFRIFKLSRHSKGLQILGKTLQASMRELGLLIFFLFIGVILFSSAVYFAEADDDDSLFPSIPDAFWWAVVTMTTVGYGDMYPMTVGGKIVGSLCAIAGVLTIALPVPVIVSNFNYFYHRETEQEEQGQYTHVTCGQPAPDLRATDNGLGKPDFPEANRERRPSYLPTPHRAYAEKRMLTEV

[4] = target: T3, Kv1.3 (Homo sapiens, UniProt P22001); test: cell-based
T3 construct: expressed in transfected cells; host or cells: Chinese Hamster Ovary (CHO)
T3 sequence (P22001 whole entry): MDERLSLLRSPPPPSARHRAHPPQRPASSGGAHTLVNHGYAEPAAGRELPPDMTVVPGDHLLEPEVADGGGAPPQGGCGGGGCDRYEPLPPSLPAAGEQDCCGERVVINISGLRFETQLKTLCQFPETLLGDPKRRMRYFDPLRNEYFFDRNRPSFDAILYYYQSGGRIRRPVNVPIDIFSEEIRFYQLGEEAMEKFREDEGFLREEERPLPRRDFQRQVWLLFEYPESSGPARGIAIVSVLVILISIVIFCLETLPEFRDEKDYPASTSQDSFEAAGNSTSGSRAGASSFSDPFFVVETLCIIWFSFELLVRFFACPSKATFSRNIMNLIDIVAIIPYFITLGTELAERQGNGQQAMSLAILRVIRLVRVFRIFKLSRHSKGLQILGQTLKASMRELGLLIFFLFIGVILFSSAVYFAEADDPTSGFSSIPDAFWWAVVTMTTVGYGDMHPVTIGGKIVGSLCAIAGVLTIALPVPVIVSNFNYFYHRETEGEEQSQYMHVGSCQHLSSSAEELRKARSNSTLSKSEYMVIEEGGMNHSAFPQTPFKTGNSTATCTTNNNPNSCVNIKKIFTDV

[5] = target: T4, Kv1.2 (Homo sapiens, UniProt P16389); test: cell-based
T4 construct: expressed in transfected cells; host or cells: Chinese Hamster Ovary (CHO)
T4 sequence (P16389 whole entry): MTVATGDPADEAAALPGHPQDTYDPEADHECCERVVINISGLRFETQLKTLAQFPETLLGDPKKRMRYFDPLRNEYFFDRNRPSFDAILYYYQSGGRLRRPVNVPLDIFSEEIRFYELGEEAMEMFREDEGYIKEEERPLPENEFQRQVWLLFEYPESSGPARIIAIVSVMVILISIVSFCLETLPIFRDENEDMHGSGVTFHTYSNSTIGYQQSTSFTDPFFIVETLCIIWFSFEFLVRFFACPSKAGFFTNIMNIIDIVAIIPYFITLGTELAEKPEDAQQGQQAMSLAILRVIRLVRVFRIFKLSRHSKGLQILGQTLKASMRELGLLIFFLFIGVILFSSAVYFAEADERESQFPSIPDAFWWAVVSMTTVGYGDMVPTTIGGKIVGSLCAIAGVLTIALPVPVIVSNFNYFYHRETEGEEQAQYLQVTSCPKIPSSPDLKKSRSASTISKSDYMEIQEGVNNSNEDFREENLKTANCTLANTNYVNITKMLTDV

[6] = target: T5, human Kv1.3 voltage-gated K+ channel (Homo sapiens, UniProt P22001); test: cell-based
T5 construct: host or cells: CHO-DUKX
T5 sequence (P22001 whole entry): as the sequence (P22001 whole entry) above

[7] = target: Rat whole blood (Rattus norvegicus, UniProt P15384)
Chain of Rat whole blood (P15384 whole entry): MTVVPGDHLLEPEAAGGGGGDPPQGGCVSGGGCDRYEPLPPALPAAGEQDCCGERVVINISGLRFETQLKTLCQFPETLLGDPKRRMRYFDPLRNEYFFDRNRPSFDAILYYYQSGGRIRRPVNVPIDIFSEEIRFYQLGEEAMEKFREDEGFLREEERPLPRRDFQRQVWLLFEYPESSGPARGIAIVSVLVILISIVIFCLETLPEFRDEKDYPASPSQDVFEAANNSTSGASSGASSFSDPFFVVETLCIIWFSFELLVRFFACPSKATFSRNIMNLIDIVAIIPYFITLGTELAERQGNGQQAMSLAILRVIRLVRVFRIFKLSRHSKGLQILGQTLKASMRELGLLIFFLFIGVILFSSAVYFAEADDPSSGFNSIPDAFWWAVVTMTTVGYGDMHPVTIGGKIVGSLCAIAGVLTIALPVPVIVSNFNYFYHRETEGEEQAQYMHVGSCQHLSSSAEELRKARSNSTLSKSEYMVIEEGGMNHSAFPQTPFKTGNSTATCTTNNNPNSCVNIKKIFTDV

[8] = in vivo; conditions: male, rat, sc, 70 nmol/kg
[9] = tested on: delayed-type hypersensitivity (DTH) ear swelling response; format: in vivo, rat
[10] = CHO cells, whole-cell patch clamp, read-out: Potency IC50 (nM) Kv1.1
[11] = CHO cells, whole-cell patch clamp, read-out: Potency IC50 (nM) Kv1.6
[12] = CHO cells, whole-cell patch clamp, read-out: Potency IC50 (nM) Kv1.3
[13] = CHO cells, whole-cell patch clamp, read-out: Potency IC50 (nM) Kv1.2
[14] = inhibition of thallium flux, CHO-DUKX cells with human Kv1.3, read-out: IC50

| Structure (SMILES) | IC50 [1] | IC50 [2, 10] | Selectivity Kv1.1/Kv1.3 [2] | IC50 [3, 11] | IC50 [4, 12] | IC50 [5, 13] | IC50 [6, 14] | IC50 [7] | AUC(0-inf) [8] | Cmax [8] | half-life [8] | further results |
| --- | --- | --- | --- | --- | --- | --- | --- | --- | --- | --- | --- | --- |
| CCCC[C@@H]1NC(=O)[C@@H]2CSSC[C@H](NC(=O)[C@H](CCCNC(=N)N)NC(=O)[C@H](CCSC)NC(=O)[C@H](CC(=O)O)NC(=O)[C@H](CCSC)NC(=O)[C@@H](N)CC(N)=O)C(=O)N[C@@H](CO)C(=O)N[C@@H](C)C(=O)N[C@@H](CO)C(=O)N[C@@H](C(C)C)C(=O)N[C@@H](CCC(=O)O)C(=O)N[C@H]3CSSC[C@H](NC(=O)[C@H](CCCCN)NC(=O)[C@H](CCCCN)NC(=O)[C@H](CC(N)=O)NC1=O)C(=O)N[C@@H](CCCCN)C(=O)N[C@H](C(=O)N[C@@H](Cc1ccc(O)cc1)C(=O)N1CCC[C@H]1C(=O)N[C@@H](CCCNC(=N)N)C(N)=O)CSSC[C@H](NC(=O)[C@H](CCCCN)NC(=O)[C@H](CCC(N)=O)NC(=O)[C@H](CCCCN)NC3=O)C(=O)N[C@@H](CC(C)C)C(=O)N[C@@H](CCCCN)C(=O)N[C@@H](C)C(=O)N[C@@H]([C@@H](C)CC)C(=O)NCC(=O)N[C@@H](CO)C(=O)N[C@@H]([C@@H](C)CC)C(=O)N[C@@H](Cc1ccccc1)C(=O)NCC(=O)N[C@@H](CCCCN)C(=O)N2 [Compound 16] (H-NMDMRCSASVECKQKCLKAIGSIFGKC[Nle]NKKCKCYPR-NH2; disulfide 6-27, 12-32, 16-34) | 0.05 nM | > 3000 nM | >12600 | 2460 nM | 0.24 nM | 133 nM | 0.14 nM |  |  |  |  |  |
| CC[C@H](C)[C@@H]1NC(=O)[C@H](C)NC(=O)[C@H](CC(=O)O)NC(=O)[C@H](CC(C)C)NC(=O)[C@@H]2CSSC[C@@H](C(=O)N[C@@H](Cc3ccc(O)cc3)C(=O)N3CCC[C@H]3C(=O)N[C@@H](CCCNC(=N)N)C(N)=O)NC(=O)[C@H](CCCCN)NC(=O)[C@@H]3CSSC[C@H](NC(=O)[C@H](CCC(=O)O)NC(=O)[C@H](C(C)C)NC(=O)[C@H](CO)NC(=O)[C@H](C)NC(=O)[C@H](CO)NC(=O)[C@@H](NC(=O)[C@H](CCCNC(=N)N)NC(=O)[C@H](CCSC)NC(=O)[C@H](CC(=O)O)NC(=O)[C@H](CCSC)NC(=O)[C@@H](N)CC(N)=O)CSSC[C@H](NC(=O)[C@H](CCCCN)NC(=O)CNC(=O)[C@H](Cc4ccccc4)NC(=O)[C@H]([C@@H](C)CC)NC(=O)[C@H](CO)NC(=O)CNC1=O)C(=O)N[C@@H](CCSC)C(=O)N[C@@H](CC(N)=O)C(=O)N[C@@H](CCCCN)C(=O)N[C@@H](CCCCN)C(=O)N3)C(=O)N[C@@H](CCCCN)C(=O)N[C@@H](CCC(N)=O)C(=O)N[C@@H](CCCCN)C(=O)N2 [Compound 20] (H-NMDMRCSASVECKQKCLDAIGSIFGKCMNKKCKCYPR-NH2; disulfide 6-27, 12-32, 16-34) | 0.1 nM | > 3000 nM | >14300 | 2530 nM | 0.21 nM | 99 nM | 0.13 nM |  |  |  |  |  |
| CC[C@H](C)[C@@H]1NC(=O)[C@H](C)NC(=O)[C@H](CCCCN)NC(=O)[C@H](CC(C)C)NC(=O)[C@@H]2CSSC[C@@H](C(=O)N[C@@H](Cc3ccc(O)cc3)C(=O)N3CCC[C@H]3C(=O)N[C@@H](CCCNC(=N)N)C(N)=O)NC(=O)[C@H](CCCCN)NC(=O)[C@@H]3CSSC[C@H](NC(=O)[C@H](CCC(=O)O)NC(=O)[C@H](C(C)C)NC(=O)[C@H](CO)NC(=O)[C@H](C)NC(=O)[C@H](CO)NC(=O)[C@@H](NC(=O)[C@H](CCCNC(=N)N)NC(=O)[C@H](CCSC)NC(=O)[C@H](CC(=O)O)NC(=O)[C@H](CCSC)NC(=O)[C@@H](N)CC(N)=O)CSSC[C@H](NC(=O)[C@H](CCCCN)NC(=O)CNC(=O)[C@H](Cc4ccccc4)NC(=O)[C@H](CCCNC(=N)N)NC(=O)[C@H](CO)NC(=O)CNC1=O)C(=O)N[C@@H](CCSC)C(=O)N[C@@H](CC(N)=O)C(=O)N[C@@H](CCCCN)C(=O)N[C@@H](CCCCN)C(=O)N3)C(=O)N[C@@H](CCCCN)C(=O)N[C@@H](CCC(N)=O)C(=O)N[C@@H](CCCCN)C(=O)N2 [Compound 35] (H-NMDMRCSASVECKQKCLKAIGSRFGKCMNKKCKCYPR-NH2; disulfide 6-27, 12-32, 16-34) | 0.1 nM | > 3000 nM | >15000 | 192 nM | 0.2 nM | 18 nM | 0.077 nM |  |  |  |  |  |
| CCCC[C@H](NC(=O)[C@@H]1CCCN1)C(=O)N[C@@H](CCC(=O)O)C(=O)N[C@@H](CCCC)C(=O)N[C@@H](CCCNC(=N)N)C(=O)N[C@H]1CSSC[C@@H]2NC(=O)[C@H](CCCCN)NC(=O)CNC(=O)[C@H](Cc3ccccc3)NC(=O)[C@H]([C@@H](C)CC)NC(=O)[C@H](CO)NC(=O)CNC(=O)[C@H]([C@@H](C)CC)NC(=O)[C@H](C)NC(=O)[C@H](C)NC(=O)[C@H](CC(C)C)NC(=O)[C@@H]3CSSC[C@@H](C(=O)N[C@@H](Cc4ccc(O)cc4)C(=O)N4CCC[C@H]4C(=O)N[C@@H](CCCNC(=N)N)C(=O)O)NC(=O)[C@H](CCCCN)NC(=O)[C@H](CSSC[C@H](NC(=O)[C@H](CCC(=O)O)NC(=O)[C@H](C(C)C)NC(=O)[C@H](CO)NC(=O)[C@H](C)NC(=O)[C@H](CO)NC1=O)C(=O)N[C@@H](CCCCN)C(=O)N[C@@H](CCC(N)=O)C(=O)N[C@@H](CCCCN)C(=O)N3)NC(=O)[C@H](CCCCN)NC(=O)[C@H](CCCCN)NC(=O)[C@H](CC(N)=O)NC(=O)[C@H](CCCC)NC2=O [Compound 97] (H-P[Nle]E[Nle]RCSASVECKQKCLAAIGSIFGKC[Nle]NKKCKCYPR-OH; disulfide 6-27, 12-32, 16-34) |  | > 3000 nM | >9100 | > 3000 nM | 0.33 nM | 1120 nM | 0.15 nM | ≤ 1 nM | 0.112 µM·h | 52.6 nM | 62.4 min | Selectivity Kv1.6/Kv1.3 ([3]; ratio IC50[Kv1.6]/IC50[Kv1.3]): >9100; % inhibition of ear thickness (AUC of Δ ear thickness 0-48 hours) ([9]; Exp #6, Kv1.3 blocker 100 nmol/kg SC 24 hrs prior to KLH challenge, CsA 10 mg/kg per os): 42.5%; % inhibition of ear thickness (AUC of Δ ear thickness 0-48 hours) ([9]; Exp #8, Kv1.3 blocker 100 nmol/kg SC 24 hrs prior to KLH challenge, CsA 10 mg/kg per os): 37.7% |
| CCCC[C@@H]1NC(=O)[C@@H]2CSSC[C@H](NC(=O)[C@H](CCCNC(=N)N)NC(=O)[C@H](CCCC)NC(=O)[C@H](CCC(=O)O)NC(=O)[C@@H](NC(=O)[C@@H]3CCCN3)[C@@H](C)CC)C(=O)N[C@@H](CO)C(=O)N[C@@H](C)C(=O)N[C@@H](CO)C(=O)N[C@@H](C(C)C)C(=O)N[C@@H](CCC(=O)O)C(=O)N[C@H]3CSSC[C@H](NC(=O)[C@H](CCCCN)NC(=O)[C@H](CCCCN)NC(=O)[C@H](CC(N)=O)NC1=O)C(=O)N[C@@H](CCCCN)C(=O)N[C@H](C(=O)N[C@@H](Cc1ccc(O)cc1)C(=O)N1CCC[C@H]1C(=O)N[C@@H](CCCNC(=N)N)C(=O)O)CSSC[C@H](NC(=O)[C@H](CCCCN)NC(=O)[C@H](CCC(N)=O)NC(=O)[C@H](CCCCN)NC3=O)C(=O)N[C@@H](CC(C)C)C(=O)N[C@@H](C)C(=O)N[C@@H](C)C(=O)N[C@@H]([C@@H](C)CC)C(=O)NCC(=O)N[C@@H](CO)C(=O)N[C@@H]([C@@H](C)CC)C(=O)N[C@@H](Cc1ccccc1)C(=O)NCC(=O)N[C@@H](CCCCN)C(=O)N2 [Compound 101] (H-PIE[Nle]RCSASVECKQKCLAAIGSIFGKC[Nle]NKKCKCYPR-OH; disulfide 6-27, 12-32, 16-34) |  |  |  |  |  |  |  | ≤ 1 nM | 0.132 µM·h | 58.6 nM | 54.6 min | IC50 [2]: > 3000 nM; IC50 [3]: > 3000 nM; IC50 [4]: 0.35 nM; IC50 [5]: 1970 nM; IC50 [6]: 0.18 nM; % inhibition of ear thickness (AUC of Δ ear thickness 0-48 hours) ([9]; rat, in vivo): 44.5% |
| CC[C@H](C)[C@H](N)C(=O)N[C@@H](CC(N)=O)C(=O)N[C@H](C(=O)N[C@@H](CCCCN)C(=O)N[C@H]1CSSC[C@@H]2NC(=O)[C@H](CCCCN)NC(=O)CNC(=O)[C@H](Cc3ccccc3)NC(=O)[C@H](CCCNC(=N)N)NC(=O)[C@H](CCSC)NC(=O)CNC(=O)[C@H](C)NC(=O)[C@H](CC(=O)O)NC(=O)[C@H](CCCCN)NC(=O)[C@@H]3CSSC[C@@H](C(=O)N[C@@H](Cc4ccc(O)cc4)C(=O)N[C@@H](CO)C(=O)O)NC(=O)[C@H](CCCNC(=N)N)NC(=O)[C@H](CSSC[C@H](NC(=O)[C@H](CCC(N)=O)NC(=O)[C@H](CCC(N)=O)NC(=O)[C@@H]4CCCN4C(=O)[C@H](CC(C)C)NC(=O)[C@H](CO)NC1=O)C(=O)N[C@@H]([C@@H](C)CC)C(=O)N[C@@H](CCCCN)C(=O)N1CCC[C@H]1C(=O)N3)NC(=O)[C@H](CCCCN)NC(=O)[C@H](CCCCN)NC(=O)[C@H](CC(N)=O)NC(=O)[C@H](CCSC)NC2=O)C(C)C [Moka1, reference compound] |  |  |  |  |  |  |  |  |  |  |  | IC50 of Moka1 relative to IC50 of test compounds and ShK186 (IL-2 secretion) ([1]; test compound IC50 lower than that of Moka1): 10-100 fold |
